According to patent US20220218725A1, “METHODS AND MATERIALS FOR TREATING CANCER” (Mayo Foundation for Medical Education and Research, priority 2019, published 2022):
Like-named read-outs stand apart in the source and are kept apart here.

Legend:
[1] = test system: Nonmalignant BM MNC; assay: Viability of nonmalignant cells, Annexin V/PI assay; format: cell-based, human; conditions: 48 h, KPT-330 0.05-0.5 μM, CS 1-3 mM
From the text: (§1) Primary patient samples were obtained. The mononuclear cells were obtained from bone marrow, spleen, peripheral blood and lymph nodes as follows. Freshly obtained tissue (lymph node, spleen, bone marrow) was placed in mesh screen and using a syringe plunger, the tissue was pressed into a petri dish. Samples were then rinsed through the screen using measured amounts of RPMI until all tissue has been pressed through. […] Subsequently the mononuclear cells were isolated via centrifugation in the presence of ficoll and this step was again repeated following washing the cells with RPMI media.
(§2) To isolate peripheral blood mononuclear cells (PBMCs), freshly obtained patient blood sample of patients were centrifuged in the present of ficoll and this step was repeated twice following washing the cells with PBS. Following isolating the mononuclear cells, the viability was assessed and ascertained proper viability above 80% prior to conduct respective experiments. Non-malignant cells were confirmed not to have a malignant condition by pathology review of the tissue.

[2] = test system: Nonmalignant splenic MNC; assay: as above; format: cell-based, human; conditions: 48 h, KPT-330 0.05-0.5 μM, CS 1-3 mM
From the text: as §1, §2

[3] = test system: Nonmalignant PBMC; assay: as above; format: cell-based, human; conditions: 48 h, KPT-330 0.05-0.5 μM, CS 1-3 mM
From the text: as §1, §2

[4] = test system: DHL6 cells; assay: Cell viability, Annexin V/PI assay; conditions: DHL6 (DLBCL); 48 hours; KPT-330 0.1-1.0 μM, CS 1-3 mM, single agent or combination
Method: Cell lines were purchased from the cell line repositories ATCC (Manassas, Va.) or DSMZ (Braunschweig, Germany). These included MCL cell lines: JeKo-1, Mino; TCL cell lines: Karpas-299, SR-786; DLBCL cell lines: OCI-Ly1 (LY-1), OCI-Ly3 (LY-3), OCI-Ly19 (LY-19), SU-DHL-6 (DHL-6); MM cell lines: RPMI, U266, OPM2, Xgl, KMS2; ALL cell lines: CRL-1783; non-small cell lung cancer: NCI-H460, A549, HCC827; small cell lung cancer: H1048; sarcoma: Fuji, SW872. Cell lines were cultured according to instruction.
KPT-330 purchased from Selleckchem (cat no: S7252) was dissolved in DMSO while CS (Santa Cruz, Calif.S 2016-36-6), sodium salicylate (Sigma-Aldrich, cat no: S3007), acetyl salicylate (Sigma-Aldrich, cat no: CAS 50-78-2) was diluted in PBS. Ketorolac (Sigma-Aldrich, cat no: 1356665), Bortezomib (Selleckchem, cat no: S1013), gemcitabine (Sigma-Aldrich, cat no: G6423), Leptomycin-B (Sigma-Aldrich, cat no: L2913-2X) and KPT-185 (Selleckchem, cat no: S7125) were dissolved in DMSO. The concentration range of KPT-330 was 0.05-1.0 μM while CS was 1-3 mM were used for ex vivo treatment and incubation time ranged from 24 hours to 72 hours. For the PARP inhibitor assay, olaparib 10 μM (SelleckChem, cat no: AZD2281 Ku-0059436) was used.
The viability assessment for cell lines and primary patients samples were conducted with the Annexin V/PI method.

[5] = test system: U2OS cells transfected with nuclear export reporter construct (NLS-GFP-NES); assay: Nuclear export efficiency assay (NLS-GFP-NES reporter); format: cell-based; conditions: 24 hours, KPT-330 at 0.5 μM, 100 reporter-expressing cells scored
From the text: A GFP reporter construct was made using the backbone of pEGFP-N1 vector. Specifically, the green fluorescence (GFP) was in-frame tagged with 3 consecutive copies of nuclear localization sequence (NLS) of SV40 large T antigen to the N-terminus and 3 consecutive copies of nuclear export sequences (NES) of HIV Rev to the C-terminus. The resulting construct encodes NLS-GFP-NES fusion protein capable of shuttling freely between the nucleus and the cytoplasm. The construct DNA was transfection into U2OS cells using Lipofectamine 2000 reagent (Life Technologies) according to product instruction. Six hours post transfection, the cells were treated with vehicle, CS, KPT-330, and K+CS for 24 hours. Finally, the treated cells were fixed with 4% PFA, and permeabilized, and stained for endogenous expression of CRM1 protein with anti-CRM1 antibody (Cell Signaling, Danvers, Mass.; catalog number: 46249, dilution 1:1500). Cell images were collected on a Zeiss LSM 780 confocal microscope.

[6] = Viability of nonmalignant cells, Annexin V/PI assay; format: cell-based, human; conditions: human, KPT-330 0.05-0.5 μM, CS 1-3 mM, read-out: % viability normalized for respective controls
From the text: as §1, §2

SMILES | % viability normalized for respective controls [1] [%] | % viability normalized for respective controls ([2]; Splenic MNC (sample of r39)) [%] | % viability normalized for respective controls ([2]; Splenic MNC (sample of r40)) [%] | % viability normalized for respective controls ([2]; Splenic MNC (sample of r41)) [%] | % viability normalized for respective controls ([2]; Splenic MNC (sample of r42)) [%] | % viability normalized for respective controls [3] [%] | % viability normalized for respective controls [4] [%] | cells with complete nuclear localization of GFP [5] [%] | viability at 48 h ([6]; nonmalignant bone marrow mononuclear cells, BM MNC) [%] | viability at 48 h ([6]; nonmalignant peripheral blood mononuclear cells (PBMC)) [%] | viability at 48 h ([6]; nonmalignant splenic mononuclear cells, Splenic MNC (sample of r39)) [%] | viability at 48 h ([6]; nonmalignant splenic mononuclear cells, Splenic MNC (sample of r40)) [%] | viability at 48 h ([6]; nonmalignant splenic mononuclear cells, Splenic MNC (sample of r41)) [%] | viability at 48 h ([6]; nonmalignant splenic mononuclear cells, Splenic MNC (sample of r42)) [%]
C[N+](C)(C)CCO.O=C([O-])c1ccccc1O [CS, choline salicylate] | 82 | 82 | 64 | 76 | 76 | 78 | 101 |  |  |  |  |  |  | 
O=C(/C=C\n1cnc(-c2cc(C(F)(F)F)cc(C(F)(F)F)c2)n1)NNc1cnccn1 [KPT-330, (Z)-3-[3-[3,5-bis (trifluoromethyl)phenyl]-1,2,4-triazol-1-yl]-N′-pyrazin-2-ylprop-2-enehydrazide] |  |  |  |  |  |  |  | 28 | 78 | 86 | 84 | 66 | 59 | 58
